We go through one compound from patent publication US20210059590A1, “IDENTIFICATION OF AND TREATMENT FOR PERSONS AT HIGH RISK FOR DEVELOPING MAJOR DEPRESSIVE DISORDER” (The Trustees of Columbia University in the City of New York, priority 2018, published 2021).

Structures are written as SMILES. Where two headings read alike, the source gives them in different places.

The nature of the data set: Plasma free fraction (fP) of the PET tracer. Conditions: for fraction unbound: human, plasma. Type of data set: in vitro ADME, human. The text has this:
Arterial plasma radioactivity, metabolites, and plasma free fraction (fP) were collected and assayed as previously described (Parsey et al., 2006; Parsey et al., 2000). Unmetabolized parent fraction levels were fit with a Hill function (Wu et al., 2007). The input function was corrected for unmetabolized tracer by multiplying the total plasma counts with the interpolated parent fraction. The metabolite-corrected arterial input function was fit as the combination of a straight line and the sum of three decreasing exponentials, describing the function before and after the peak, respectively.

Take `COc1ccccc1N1CCN(CCN(C(=O)C2CCCCC2)c2ccccn2)CC1` [[^11C]WAY-100635, N-[2-[4-(2-methoxyphenyl)-1-piperazinyl]ethyl]-N-2-pyridinylcyclohexanecarboxamide]: the “Percent Free Fraction” value by setting is: (Depressed NRM MDD subjects, N=30, mean ± SD) 6.15 ± 1.72%; (Healthy Volunteers (HV), N=51, mean ± SD) 8.10 ± 2.39%. Besides, the fraction unbound (Depressed NRM MDD subjects, N=30, mean ± SD, read-out: Percent Free Fraction) is around 0.062; the fraction unbound (Healthy Volunteers (HV), N=51, mean ± SD, read-out: Percent Free Fraction) is around 0.08; the fraction unbound (High Risk (HR) subjects, N=9, mean ± SD, read-out: Percent Free Fraction) worked out at 0.065; the fraction unbound (Medication Exposed MDD patients, n=66, off antidepressants at least two weeks, read-out: Plasma free fraction (fp)) was 0.07 ± 0.02; the fraction unbound (Medication Naïve MDD patients, n=32, read-out: Plasma free fraction (fp)) was 0.06 ± 0.02.
